Laboratory results: patent publication US20090298811A1, “BENZIMIDAZOLONE DERIVATIVES” (Pfizer Inc, priority 2006, published 2009)

Tests used:
human CB1 receptor [1] = biological target: T1, human CB1 receptor (Homo sapiens, UniProt P21554); experiment: GTPγS binding on membranes of CHO cells expressing the human CB1 receptor; assay type: biochemical; set-up: expressed in transfected cells; host or cells: CHO cells (G418 selection); membranes; conditions: CHO cell membranes, [35S] GTPγS
Description: Membrane preparation: CHO cells expressing the human CB1 receptor were grown to 80% confluence in Ham's F-12 Nutrient Medium (Invitrogen) containing 10% fetal bovine serum (Invitrogen), 1% pen/strep (Invitrogen), 1% Nonessential amino acids (Invitrogen) and 500 μg/ml G418 (Invitrogen). Cells were released from flasks using Cell Dissociation Buffer (Invitrogen). Cells were pelleted by centrifugation at 500×G for 5 minutes. Membranes were prepared by resuspending cells in ice cold Assay Buffer (25 mM Tris pH 7.4, 5 mM EDTA, 5 mM EGTA, Complete Protease Inhibitor (Roche)). Cells were lysed with 12 strokes of a dounce homogenizer. Unlysed cells were pelleted by centrifugation at 500×G for 5 minutes. Membranes were pelleted by centrifugation at 25,000×G for 30 minutes. Membranes were resuspended in TEE, dounced 12 strokes, and pelleted a second time at 25,000×G for 30 minutes. Membrane pellet was resuspended in 50 mM Tris pH 7.4, 100 mM NaCl, 3 mM MgCl2, 0.2 mM EGTA, Complete Protease Inhibitor (Roche). Protein concentration was determined using the Micro-BCA Protein Assay Kit (Pierce) using BSA as a standard. Membranes were frozen and stored at −80 degrees Celsius until use. GTPγS Binding: 40 μl of test compound was incubated with 20 μl of [^35S] GTPγS (Perkin Elmer) (1250 Ci/millimole) and 140 μl of membrane homogenate (5 ug/well) in polypropylene 96-well plates (Corning). Final reaction conditions were 50 mM Tris pH 7.4, 100 mM NaCl, 3 mM […], 0.2 mM EGTA, 0.04% BSA. After incubation at 37 degrees Celsius for 45 minutes reactions were harvested by vacuum filtration through Unifilter GF/B-96 filters (Perkin Elmer) using a FilterMate Plate Harvester (Perkin Elmer). Filters were rinsed 4 times with ice cold 50 mM Tris pH 7.4, 3 mM MgCl2, 0.2 mM EGTA and dried at 50 degrees Celsius for at least 30 minutes. 40 μl of Microscint-20 (Perkin Elmer) was added per well, and plates were counted using a Top-Count Microplate Scintillation Counter (Perkin Elmer). Binding data were analyzed and EC50 values were calculated using Graph Pad Prism 4.0 Software.

human CB1 receptor [2] = biological target: T1, human CB1 receptor; experiment: Human CB1 receptor binding, [3H] CP-55,940 displacement on HEK cell membranes; set-up: expressed in transfected cells; membranes; conditions: [3H] CP-55,940 500 pM
Description: The Human CB1 receptor binding affinity and other biological activities of the compounds of this invention are determined by the following procedures.
Membrane preparation: Human Embryonic Kidney (HEK) Cells expressing the human CB1 receptor under transcriptional regulation of a tetracycline inducible promoter were grown in Dulbecco's Modified Essential Medium with sodium pyruvate (Invitrogen, Carlsbad, Calif.) containing 10% tetracycline free fetal bovine serum (Clonetech, Mountain View, Calif.) 100 μg/ml hygromycin (Calbiochem, San Diego, Calif.), 5 μg/ml blasticidin (Invitrogen). CB1 receptor expression was induced by addition of 1 μg/ml doxycycline (Calbiochem) and incubation for an additional 24 hours. Cells were released from flasks using Cell Dissociation Buffer (Invitrogen). Cells were pelleted by centrifugation at 500×G for 5 minutes. Membranes were prepared by resuspending cells in ice cold TEE Buffer (25 mM Tris pH 7.4, 5 mM EDTA, 5 mM EGTA, Complete Protease Inhibitor (Roche, Basel, Switzerland)). Cells were lysed with 12 strokes of a dounce homogenizer. Unlysed cells were pelleted by centrifugation at 500×G for 5 minutes. Membranes were pelleted by centrifugation at 25,000×G for 30 minutes. Membranes were resuspended in TEE, dounced 12 strokes, and pelleted a second time at 25,000×G for 30 minutes. Membrane pellet was resuspended in 50 mM Tris pH 7.4, 100 mM NaCl, 3 mM MgCl2, 0.2 mM EGTA, Complete Protease Inhibitor (Roche). Protein concentration was determined using the Micro-BCA Protein Assay Kit (Pierce, Rockford, Ill.) using BSA as a standard. Membranes were quick frozen and stored at −80 degrees Celsius until use. Binding experiments: 50 μl of test compound was incubated with 50 μl, of [^3H] CP-55,940 (Perkin Elmer, Boston, Mass.) (final concentration 500 pM) and 150 μl of membrane homogenate (1 μg/well) in polypropylene 96-well plates (Corning, Acton, Mass.). Final reaction conditions were 50 mM Tris pH 7.4, 100 mM NaCl, 3 mM MgCl2, 0.2 mM EGTA, 0.04% BSA. Nonspecific binding was determined by incubation with 50 μM WIN-55,212-2 (Tocris, Ellisville, Mo.). After incubation at room temperature for 60 minutes reactions were harvested by vacuum filtration through Unifilter GF/B-96 filters (Perkin Elmer) that had been presoaked in assay buffer containing 0.5% BSA (Sigma, St. Louis, Mo.) using a FilterMate Plate Harvester (Perkin Elmer). Filters were rinsed 4 times with 50 mM Tris pH 7.4, 0.025% Tween20 and dried at 50 degrees Celsius for at least 30 minutes. 40 μl of Microscint-20 (Perkin Elmer) was added per well, and plates were counted using a Top-Count Microplate Scintillation Counter (Perkin Elmer). Binding data were analyzed and EC50 and Ki values calculated using Graph Pad Prism 4.0 Software.

T1 sequence (P21554 whole entry): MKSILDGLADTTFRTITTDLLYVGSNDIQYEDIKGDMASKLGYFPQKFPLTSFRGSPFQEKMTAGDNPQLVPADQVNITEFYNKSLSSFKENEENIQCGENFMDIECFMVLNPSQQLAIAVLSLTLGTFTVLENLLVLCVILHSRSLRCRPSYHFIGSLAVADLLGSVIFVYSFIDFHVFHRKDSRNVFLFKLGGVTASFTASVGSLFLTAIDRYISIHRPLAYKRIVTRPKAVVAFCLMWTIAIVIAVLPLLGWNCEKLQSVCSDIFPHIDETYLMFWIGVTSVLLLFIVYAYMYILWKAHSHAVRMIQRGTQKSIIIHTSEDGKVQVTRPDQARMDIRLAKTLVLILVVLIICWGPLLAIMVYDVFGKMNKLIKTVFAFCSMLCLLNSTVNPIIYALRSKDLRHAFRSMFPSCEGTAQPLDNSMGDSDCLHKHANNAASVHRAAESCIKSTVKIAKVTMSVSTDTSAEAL

Row | Compound | EC50 (human CB1 receptor [1]) [µM] | Ki (human CB1 receptor [2]) [µM]
1 | CC(C)(C)[C@H](NC(=O)n1c(=O)n(CC2CCOCC2)c2ccccc21)C(=O)NC1CC1 [Example 298] | 0.0886 | 0.00527
2 | O=C(N[C@H]1CCCc2ccccc21)n1c(=O)n(CC2CCOCC2)c2ccccc21 [Example 276] | 0.0058 | 0.000374
3 | CC(C)(C)[C@H](NC(=O)n1c(=O)n(CC2CCOCC2)c2ccccc21)c1nnc(N)o1 [Example 319] | 0.0963 | 0.00517
4 | CC(C)(C)[C@H](NC(=O)n1c(=O)n(CC2CCCCO2)c2ccccc21)C(N)=O (stereo partly shown) [Example 224] | 0.176 | 0.0299
5 | CC(C)(C)[C@H](NC(=O)n1c(=O)n(CCC(F)(F)F)c2ccccc21)C(N)=O [Example 227] | 0.245 | 0.0102
6 | CC(C)(C)[C@H](NC(=O)n1c(=O)n(CC2CCCCC2)c2cc(Br)ccc21)C(N)=O [Example 307] | 0.0495 | 0.00185
7 | O=C(N[C@H]1CCCc2ccccc21)n1c(=O)n(CC2CCCCC2)c2ccccc21 [Example 197] | 0.0132 | 0.00078
8 | CC(C)(C)[C@H](NC(=O)n1c(=O)n(CC2CCOCC2)c2cc(F)ccc21)C(=O)NCCO [Example 356] | 0.219 | 0.0166
9 | CC(C)(C)[C@H](NC(=O)n1c(=O)n(CC2CCCCC2)c2c(Cl)cccc21)C(N)=O [Example 173] | 0.0025 | 0.00034
10 | CC(C)(C)[C@H](NC(=O)n1c(=O)n(CC2CC=C(F)CC2)c2ccccc21)C(N)=O (single isomer, unassigned) [Example 305] | 0.00174 | 0.00018
11 | CC(C)(C)[C@@H](CO)NC(=O)n1c(=O)n(CC2CCCCC2)c2cc(Br)ccc21 [Example 308] | 0.0205 | 0.00538
12 | CC(C)[C@H](NC(=O)n1c(=O)n(CC2CCCCC2)c2ccccc21)C(N)=O [Example 203] | 0.0741 | 0.00823
13 | CCCCCn1c(=O)n(C(=O)N[C@H](C(N)=O)C(C)(C)C)c2cccnc21 [Example 365] | 1.03 | 0.0951
14 | Cc1ccc2c(c1)n(C(=O)N[C@H](C(N)=O)C(C)(C)C)c(=O)n2CC1CCCCC1 [Example 167] | 0.0449 | 0.00266
15 | Cc1ccc2c(c1)n(CC1CCCCC1)c(=O)n2C(=O)N[C@H](C(N)=O)C1CCCCC1 [Example 273] | 0.244 | 0.0575
16 | Cc1ccc2c(c1)n(CC1CCCCC1)c(=O)n2C(=O)N[C@H](CC(C)C)C(N)=O [Example 267] | > 10 | 0.0184
17 | CC(C)(C)[C@H](NC(=O)n1c(=O)n(CC2CCCCC2)c2c(F)cccc21)C(N)=O [Example 172] | 0.0078 | 0.00077
18 | CC(C)(C)[C@H](NC(=O)n1c(=O)n(Cc2cccc(F)c2)c2ccccc21)C(N)=O [Example 362] | 0.106 | 0.0037

Row | Compound | EC50 (human CB1 receptor [1]) [µM] | Ki (human CB1 receptor [2]) [µM]
19 | CC(C)(C)[C@H](NC(=O)n1c(=O)n(CC2CCOCC2)c2ccccc21)C(N)=O [Example 132, N-[(1S)-1-(aminocarbonyl)-2,2-dimethylpropyl]-2-oxo-3-(tetrahydro-2H-pyran-4-ylmethyl)-2,3-dihydro-1H-benzimidazole-1-carboxamide] | 0.0127 | 0.0034
20 | CC(C)(C)[C@H](NC(=O)n1c(=O)n(CC2CCOCC2)c2ccccc21)C(=O)NCC(N)=O [Example 302] | 0.407 | 0.0823
21 | CCCCCn1c(=O)n(C(=O)N[C@H]2CCCC[C@@H]2O)c2ccccc21 [Example 193] | 0.622 | 0.0674
22 | CC(C)(C)[C@H](NC(=O)n1c(=O)n(CC2CCOCC2)c2ccccc21)C(=O)NCCO [Example 317] | 0.0836 | 0.012
23 | Cc1ccc2c(c1)n(CC1CCCCC1)c(=O)n2C(=O)NC1(C(N)=O)CCCCC1 [Example 266] | > 2.85 | 0.109
24 | CC(C)(C)[C@H](NC(=O)n1c(=O)n(CC2CCOCC2)c2cc(C#N)ccc21)C(N)=O [Example 272] | 0.0454 | 0.058
25 | Cc1cc(CNC(=O)n2c(=O)n(CC3CCOCC3)c3ccccc32)no1 [Example 312] | 0.38 | 0.0695
26 | CCc1nc(CNC(=O)n2c(=O)n(CC3CCOCC3)c3ccccc32)no1 [Example 327] | > 10 | 0.036
27 | CCCCCn1c(=O)n(C(=O)N[C@H](CO)C(C)(C)C)c2ccccc21 [Example 178] | 0.137 | 0.00845
28 | Cc1ccc2c(c1)n(CC1CCCCC1)c(=O)n2C(=O)N[C@H](C(N)=O)C(C)C [Example 269] | 0.024 | 0.00295
29 | CC(C)(C)[C@H](NC(=O)n1c(=O)n(CC2CCCCC2)c2ccc(Cl)cc21)C(N)=O [Example 166] | 0.0315 | 0.00252
30 | CC(C)(C)[C@@H](CO)NC(=O)n1c(=O)n(CC2CCCCC2)c2ccccc21 [Example 176] | 0.0824 | 0.00222
31 | CC(C)(C)[C@H](NC(=O)n1c(=O)n(CC2CCOCC2)c2cc(F)ccc21)C(=O)NCCCO [Example 355] | 0.361 | 0.00672
32 | CC(C)(C)[C@H](NC(=O)n1c(=O)n(Cc2ccccc2)c2ccccc21)C(=O)NCCO [Example 360] | 0.149 | 0.0193
33 | CCCCCn1c(=O)n(C(=O)N[C@H]2c3ccccc3C[C@H]2O)c2ccccc21 [Example 190] | 0.406 | 0.00809
34 | CCc1nc(CNC(=O)n2c(=O)n(CC3CCOCC3)c3ccccc32)cs1 [Example 328] | 0.167 | 0.00594
35 | Cc1ccc2c(c1)n(CC1CCCCC1)c(=O)n2C(=O)N[C@@H](Cc1ccccc1)C(N)=O [Example 268] | 2.58 | 0.13
